From US6150385A, “1,3,4-thiadiazoles useful for the treatment of CMV infections” (Pharmacia & Upjohn Company, priority 1999, dated 2000) come the findings set out here.

The structures appear in SMILES notation.

The target in the experiment is T1, HCMV polymerase (Human cytomegalovirus, UniProt P08546).
T1 construct: made in house; host or cells: SF-9 insect cells infected with recombinant baculovirus
T1 sequence (P08546 whole entry): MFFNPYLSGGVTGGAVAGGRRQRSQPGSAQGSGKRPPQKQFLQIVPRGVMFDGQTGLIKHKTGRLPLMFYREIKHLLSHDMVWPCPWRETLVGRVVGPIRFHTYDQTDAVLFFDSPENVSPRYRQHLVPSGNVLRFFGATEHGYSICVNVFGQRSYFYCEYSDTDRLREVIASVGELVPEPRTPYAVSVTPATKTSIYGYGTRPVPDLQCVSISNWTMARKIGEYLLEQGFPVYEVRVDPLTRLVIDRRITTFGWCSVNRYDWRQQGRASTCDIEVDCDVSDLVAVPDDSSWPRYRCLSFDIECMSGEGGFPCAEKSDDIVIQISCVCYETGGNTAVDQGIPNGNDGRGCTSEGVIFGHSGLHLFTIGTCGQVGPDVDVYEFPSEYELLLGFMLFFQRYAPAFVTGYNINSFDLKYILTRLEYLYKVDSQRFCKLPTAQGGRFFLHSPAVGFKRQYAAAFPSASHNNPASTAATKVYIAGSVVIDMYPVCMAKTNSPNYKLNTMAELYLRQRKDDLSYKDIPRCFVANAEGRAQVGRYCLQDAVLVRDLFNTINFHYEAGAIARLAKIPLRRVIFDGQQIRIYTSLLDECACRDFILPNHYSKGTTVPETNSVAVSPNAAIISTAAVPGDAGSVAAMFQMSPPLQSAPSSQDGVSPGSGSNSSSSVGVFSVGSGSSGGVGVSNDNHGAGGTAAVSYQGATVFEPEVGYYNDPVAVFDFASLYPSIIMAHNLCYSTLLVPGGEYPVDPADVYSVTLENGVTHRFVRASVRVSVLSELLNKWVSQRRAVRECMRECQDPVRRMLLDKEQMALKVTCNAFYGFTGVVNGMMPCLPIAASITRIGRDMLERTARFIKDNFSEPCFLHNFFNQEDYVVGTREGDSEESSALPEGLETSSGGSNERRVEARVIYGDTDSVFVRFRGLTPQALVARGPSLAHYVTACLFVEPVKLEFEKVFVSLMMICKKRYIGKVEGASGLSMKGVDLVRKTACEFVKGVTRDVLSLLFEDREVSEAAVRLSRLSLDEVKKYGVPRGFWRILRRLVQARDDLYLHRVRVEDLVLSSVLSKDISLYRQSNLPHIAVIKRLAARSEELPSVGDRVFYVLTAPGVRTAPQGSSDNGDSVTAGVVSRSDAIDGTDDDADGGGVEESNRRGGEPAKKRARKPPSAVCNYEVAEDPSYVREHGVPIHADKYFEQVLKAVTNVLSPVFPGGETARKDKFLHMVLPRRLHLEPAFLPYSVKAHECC
Kind of experiment: HCMV polymerase assay (scintillation proximity assay). The conditions noted are these: percentage of inhibition at 25 μM concentration in CMV polymerase assay. Type of experiment: biochemical. The method in brief: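 Baculovirus/SF-9-expressed HCMV polymerase in 5.4 mM HEPES pH 7.5, 11.7 mM KCl, 4.5 mM MgCl2, 0.36 mg/ml BSA, 90 nM 3H-dTTP, with or without 2 mM CHAPS. Started with 6 nM biotinylated poly(dA)-oligo(dT), 30 min at 25 or 37 °C, EDTA-stopped, read by streptavidin-SPA counting; % inhibition at 25 μM.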
On to `O=C(/C=C/c1ccccc1Cl)Nc1nnc(NCCC(c2ccccc2)c2ccccc2)s1` [compound 240, (E)-3-(2-chlorophenyl)-N-{5-[(3,3-diphenylpropyl)amino]-1,3,4-thiadiazol-2-yl}-2-propenamide], for which the inhibition at 25 µM came to 41.3%. Turning to `O=C(Nc1nnc(NCc2ccccn2)s1)c1c(Cl)cccc1Cl` [compound 241, 2,6-dichloro-N-{5-[(2-pyridinylmethyl)amino]-1,3,4-thiadiazol-2-yl}benzamide], the inhibition at 25 µM came out at 41.3%. The same measure, in the same setting: under `CCOc1ccc2ccccc2c1C(=O)Nc1nnc(NCCCn2ccnc2)s1` [compound 242, 2-ethoxy-N-(5-{[3-(1H-imidazol-1-yl)propyl]amino}-1,3,4-thiadiazol-2-yl)-1-naphthamide] stands 41.3%; under `O=C(Nc1nnc(NCCC(c2ccccc2)c2ccccc2)s1)c1ccc(F)cc1F` [compound 243, N-{5-[(3,3-diphenylpropyl)amino]-1,3,4-thiadiazol-2-yl}-2,4-difluorobenzamide], 41.1%; under `COc1ccc(CNc2nnc(NC(=O)c3ccc(C#N)cc3)s2)cc1OC` [compound 244, 4-cyano-N-{5-[(3,4-dimethoxybenzyl)amino]-1,3,4-thiadiazol-2-yl}benzamide], 41%.

Regarding `O=C(Nc1nnc(NCCCCc2ccccc2)s1)c1ccc(S(=O)(=O)F)cc1` [compound 245, 4-[({5-[(4-phenylbutyl)amino]-1,3,4-thiadiazol-2-yl}amino)carbonyl]benzenesulfonyl fluoride], the “% Inhib” value was 41.0%. The molecule `CCCCCCCC/C=C/CCCCCCCC(=O)Nc1nnc(NCC2CCCO2)s1` (stereo not shown) [compound 246, (E)-N-{5-[(tetrahydro-2-furanylmethyl)amino]-1,3,4-thiadiazol-2-yl}-9-octadecenamide] gave an inhibition at 25 µM of 40.9%.

Take `O=C(Nc1nnc(NCc2ccco2)s1)c1ccc(Cl)c(Cl)c1` [compound 247, 3,4-dichloro-N-{5-[(2-furylmethyl)amino]-1,3,4-thiadiazol-2-yl}benzamide]: at 25 µM the inhibition was 40.9%.

In turn, `CC(C)c1cc(C(C)C)c(C(=O)Nc2nnc(NCCNc3ccccc3)s2)c(C(C)C)c1` [compound 248, N-{5-[(2-anilinoethyl)amino]-1,3,4-thiadiazol-2-yl}-2,4,6-triisopropylbenzamide] gave an inhibition at 25 µM of 40.8%. As to `CCCCCCCC/C=C/CCCCCCCC(=O)Nc1nnc(NCCC#N)s1` [compound 249, (E)-N-{5-[(2-cyanoethyl)amino]-1,3,4-thiadiazol-2-yl}-9-octadecenamide], the inhibition at 25 µM amounted to 40.6%. Still for that read-out and setting: under `CC(C)c1cc(C(C)C)c(C(=O)Nc2nnc(NC3CCCCCC3)s2)c(C(C)C)c1` [compound 250, N-[5-(cycloheptylamino)-1,3,4-thiadiazol-2-yl]-2,4,6-triisopropylbenzamide] stands 40.5%.

As for `O=C(/C=C/c1ccccc1Cl)Nc1nnc(NCc2ccco2)s1` [compound 251, (E)-3-(2-chlorophenyl)-N-{5-[(2-furylmethyl)amino]-1,3,4-thiadiazol-2-yl}-2-propenamide], testing at 25 µM gave an inhibition of 40.3%. The same measure, in the same setting: under `O=C(Nc1nnc(NCCc2c[nH]c3ccccc23)s1)c1ccc(I)cc1` [compound 252, N-(5-{[2-(1H-indol-3-yl)ethyl]amino}-1,3,4-thiadiazol-2-yl)-4-iodobenzamide] stands 40.2%.

The molecule `CCCCCCCC/C=C/CCCCCCCC(=O)Nc1nnc(NC2CCN(Cc3ccccc3)CC2)s1` [compound 253, (E)-N-{5-[(1-benzyl-4-piperidinyl)amino]-1,3,4-thiadiazol-2-yl}-9-octadecenamide] showed an inhibition at 25 µM of 40.1%. Same read-out and setting: the same measure for `O=C(CCCCCl)Nc1nnc(NCCSc2ccccc2)s1` [compound 254, 5-chloro-N-(5-{[2-(phenylsulfanyl)ethyl]amino]-1,3,4-thiadiazol-2-yl)pentanamide]: 40%. Molecule `O=C(Nc1nnc(NCCc2c[nH]c3ccccc23)s1)c1c(Cl)cccc1Cl` [compound 255, 2,6-dichloro-N-(5-{[2-(1H-indol-3-yl)ethyl]amino}-1,3,4-thiadiazol-2-yl)benzamide] yielded an inhibition at 25 µM of 39.9%. Still for that read-out and setting: under `O=C(Nc1nnc(NC2CCCCCC2)s1)c1cc2ccccc2s1` [compound 256, N-[5-(cycloheptylamino)-1,3,4-thiadiazol-2-yl]-1-benzothiophene-2-carboxamide] stands 39.8%; under `CCCCCCCCCCCNc1nnc(NC(=O)c2cc3ccccc3s2)s1` [compound 257, N-[5-(undecylamino)-1,3,4-thiadiazol-2-yl]-1-benzothiophene-2-carboxamide], 39.8%. For `CC(=O)NCCNc1nnc(NC(=O)c2ccc3c(c2)C(=O)OC3=O)s1` [compound 258, N-(5-{[2-(acetylamino)ethyl]amino}-1,3,4-thiadiazol-2-yl)-1,3-dioxo-1,3-dihydro-2-benzofuran-5-carboxamide], at 25 µM the inhibition was 39.7%. The molecule `NS(=O)(=O)c1ccc(CCNc2nnc(NC(=O)c3c(Cl)cccc3Cl)s2)cc1` [compound 259, N-(5-{[4-(aminosulfonyl)phenethyl]amino}-1,3,4-thiadiazol-2-yl)-2,6-dichlorobenzamide] returned an inhibition at 25 µM of 39.6%. On the same count and under the same terms, the same measure for `CC(C)c1cc(C(C)C)c(C(=O)Nc2nnc(NCCCCc3ccccc3)s2)c(C(C)C)c1` [compound 260, 2,4,6-triisopropyl-N-{5-[(4-phenylbutyl)amino]-1,3,4-thiadiazol-2-yl}benzamide]: 39.6%. Regarding `CCOc1ccc2ccccc2c1C(=O)Nc1nnc(NC[C@@H]2CCC3CC2C3(C)C)s1` (stereo partly drawn) [compound 261, N-[5-({[(2R)-6,6-dimethylbicyclo[3.1.1]hept-2-yl]methyl}amino)-1,3,4-thiadiazol-2-yl]-2-ethoxy-1-naphthamide], the inhibition at 25 µM worked out at 39.5%. Still for that read-out and setting: the same measure for `O=C(/C=C/c1ccccc1)Nc1nnc(NCCc2ccccc2)s1` [compound 262, (E)-N-[5-(phenethylamino)-1,3,4-thiadiazol-2-yl]-3-phenyl-2-propenamide]: 39.5%; for `O=C(Nc1nnc(NCc2ccncc2)s1)c1ccc(Cl)c(Cl)c1` [compound 263, 3,4-chloro-N-{5-[(4-pyridinylmethyl)amino]-1,3,4-thiadiazol-2-yl}benzamide]: 39.4%; for `O=C(Nc1nnc(NCCNc2ccccc2)s1)c1ccc([N+](=O)[O-])o1` [compound 264, N-{5-[(2-anilinoethyl)amino]-1,3,4-thiadiazol-2-yl}-5-nitro-2-furamide]: 39.2%. In turn, `CC(C)c1cc(C(C)C)c(C(=O)Nc2nnc(NC3CCN(Cc4ccccc4)CC3)s2)c(C(C)C)c1` [compound 265, N-{5-[(1-benzyl-4-piperidinyl)amino]-1,3,4-thiadiazol-2-yl}-2,4,6-triisopropylbenzamide] displayed an inhibition at 25 µM of 39.1%. Turning to `CC(C)c1cc(C(C)C)c(C(=O)Nc2nnc(NCc3ccncc3)s2)c(C(C)C)c1` [compound 266, 2,4,6-triisopropyl-N-{5-[(4-pyridinylmethyl)amino]-1,3,4-thiadiazol-2-yl}benzamide], testing at 25 µM gave an inhibition of 38.8%. Same read-out and setting: under `NS(=O)(=O)c1ccc(CCNc2nnc(NC(=O)c3cc4ccccc4s3)s2)cc1` [compound 267, N-(5-{[4-(aminosulfonyl)phenethyl]amino}-1,3,4-thiadiazol-2-yl)-1-benzothiophene-2-carboxamide] stands 38.7%; under `O=C(/C=C/c1ccccc1Cl)Nc1nnc(NCCc2c[nH]c3ccccc23)s1` [compound 268, (E)-3-(2-chlorophenyl)-N-(5-{[2-(1H-indol-3-yl)ethyl]amino}-1,3,4-thiadiazol-2-yl)-2-propenamide], 38.7%; under `O=C(Nc1nnc(NCCc2c[nH]c3ccccc23)s1)c1cc2ccccc2s1` [compound 269, N-(5-{[2-(1H-indol-3-yl)ethyl]amino}-1,3,4-thiadiazol-2-yl)-1-benzothiophene-2-carboxamide], 38.5%. The molecule `CCOc1ccc2ccccc2c1C(=O)Nc1nnc(NCCc2ccccc2)s1` [compound 270, 2-ethoxy-N-[5-(phenethylamino)-1,3,4-thiadiazol-2-yl]-1-naphthamide] came in with an inhibition at 25 µM of 38.4%. Still for that read-out and setting: under `O=C(Nc1nnc(NCCc2c[nH]c3ccccc23)s1)c1cccc([N+](=O)[O-])c1` [compound 271, N-(5-{[2-(1H-indol-3-yl)ethyl]amino}-1,3,4-thiadiazol-2-yl)-3-nitrobenzamide] stands 38.4%; under `O=C(Nc1nnc(NCCCn2ccnc2)s1)c1ccc(Br)cc1` [compound 272, 4-bromo-N-(5-{[3-(1H-imidazol-1-yl)propyl]amino}-1,3,4-thiadiazol-2-yl)benzamide], 38.2%; under `O=C(Nc1nnc(NCc2ccc3c(c2)OCO3)s1)c1ccc(Br)cc1` [compound 273, N-{5-[(1,3-benzodioxol-5-ylmethyl)amino]-1,3,4-thiadiazol-2-yl}-4-bromobenzamide], 38.1%. Take `O=C(/C=C/c1ccccc1)Nc1nnc(NC2CCCCCC2)s1` [compound 274, (E)-N-[5-(cycloheptylamino)-1,3,4-thiadiazol-2-yl]-3-phenyl-2-propenamide]: at 25 µM the inhibition was 38.1%. The same measure, in the same setting: the same measure for `O=C(Nc1nnc(NCCCNC2CCCCC2)s1)c1cc(F)cc(F)c1` [compound 275, N-(5-{[3-(cyclohexylamino)propyl]amino]-1,3,4-thiadiazol-2-yl)-3,5-difluorobenzamide]: 37.9%; for `O=C(/C=C/c1ccccc1Cl)Nc1nnc(NC2CCC2)s1` [compound 276, (E)-3-(2-chlorophenyl)-N-[5-(cyclobutylamino)-1,3,4-thiadiazol-2-yl]-2-propenamide]: 37.9%.

In general, inhibition refers to how much of the control response was suppressed. A lower inhibition goes with a weak effect.
